Reference: US8680157B2, “Androgen receptor-dependent gene expression control” (Universitaetsklinikum Freiburg, priority 2005, dated 2014)

Tests used:
[1] = test system: LSD1-induced activation of AR; assay: Transient transfection, AR-dependent luciferase reporter with co-expressed LSD1 and AR in 293 cells; assay type: cell-based; conditions: R1881, 3×10^−3 M pargyline, 1×10^−3 M deprenyl or 1×10^−4 M chlorgyline, 18 hours, FIG. 4e
Description: 293 and CV-1 cells were cultured and transfected as described^13. LNCaP cells were cultured in phenol-red-free RPMI1640 supplemented with 10% double-stripped fetal calf serum (dsFCS) and transfected with Effectene (Qiagen). The following amounts per well were used: MMTV-LUC, ARE2x-TATA-LUC, ARE2x-TK-LUC, TK-LUC, PSA-LUC, Slp-ARU-TATA-LUC 500 ng each, 25 ng expression plasmids for AR; 500 ng expression plasmids for LSD1 1-174, LSD1 175-246, LSD1 247-852, pSUPER-control, and pSUPER-LSD1; 100 to 500 ng expression plasmids for LSD1 were transfected per well. […] Luciferase activity was assayed as described^14. All experiments were repeated at least five times in duplicate.

[2] = target: T1, LSD1 (Homo sapiens, UniProt O60341); assay: Chromatin immunoprecipitation (ChIP) at the PSA promoter in LNCaP cells; assay type: cell-based
T1 construct: endogenous in cells; host or cells: LNCaP
Description: ChIP experiments were performed essentially as described^15. […] LNCaP cells were transfected three days before harvesting for ChIP with or without siRNA (Qiagen) following the manufacture's instructions. Immunoprecipitation was performed with specific antibodies (α-monoMeK9H3, α-diMeK9H3, α-triMeK9H3, α-monoMeK4H3, α-diMeK4H3, α-triMeK4H3, α-H3 (abcam), α-LSD1, and α-AR PG21 (Upstate Biotechnology) on GammaBind™-Sepharose 4B (GE-Healthcare). For PCR, 1-5 μl out of 50 μl DNA extract was used. For Re-ChIP assays, immunoprecipitations were sequentially washed with TSE I, TSE II, buffer III, and TE^15. Complexes were eluted by incubation with 10 mM DTT at 37° C. for 30 min, diluted 50 times with dilution buffer^15 followed by a second immunoprecipitation with the indicated antibody. Primer sequences were as follows: middle; PSA (−2223/−1951) 5′-[…]-3′ and 5′-[…]-3′; PCR primers for ARE I+II (PSA (−459/−121)) and ARE III (PSA (−4288/−3922)) have been described previously^16.

[3] = pargyline, R1881, FIG. 3d and data not shown

C#CCN(C)[C@H](C)Cc1ccccc1 [deprenyl, (R)-(−)-N,2-dimethyl-N-2-propynylphenethylamine]
LSD1-induced ligand-dependent activation of AR (reporter activity) [1]: severely impair

C#CCN(C)CCCOc1ccc(Cl)cc1Cl [clorgyline, N-methyl-N-propargyl-3-(2,4-dichlorophenoxy-)propylamine]
LSD1-induced ligand-dependent activation of AR (reporter activity) [1]: severely impair

C#CCN(C)Cc1ccccc1 [pargyline, N-methyl-N-2-propynyl-benzylamine]
demethylation of mono- and dimethyl H3-K9 during androgen-induced transcription ([2]; PSA promoter, pargyline 18 hours, 10^−8 M R1881 210 min, FIG. 3d): blocks
methylation levels of trimethyl H3-K9 ([2]; PSA promoter, pargyline 18 hours, R1881, FIG. 3d): remains unchanged
methylation status of H3-K27 [2, 3]: remains unchanged
methylation status of H4-K20 [2, 3]: remains unchanged
LSD1-induced ligand-dependent activation of AR (reporter activity) [1]: severely impair
